# Columns and labels:
# [1] = tested on: human myeloid leukemia cell line THP1; assay: Cell proliferation test (Cell Titer-Glo), THP1; type: cell-based; conditions: THP1 cells, cytarabine alone
# Description: (§1) The cell proliferation test was performed using human myeloid leukemia cell line U-937 (ATCC, CRL-1593.2), MOLM-13 (DSMZ, ACC 554), HL60 (ATCC, CRL-240), SKM-1 (JCRB cell bank, JCRB0118), OCI-M2 (DSMZ, ACC 619), NOMO-1 (JCRB cell bank, IFO050474), MV4-11 (ATCC, CRL-9591), THP1 (ATCC, TIB-202), and human peripheral blood mononuclear cell PBMC (CTL, CTL-UP-1). As the culture medium of U-937 cells, MOLM-13 cells, HL60 cells, SKM-1 cells, OCI-M2 cells, NOMO-1 cells, MV4-11 cells, and THP1 cells, RPMI1640 (FUJIFILM Wako Pure Chemical Corporation, 189-02025) added with 10% fetal bovine serum (Thermo Fisher Scientific, Inc., 10437-028) and 1% penicillin-streptomycin (10,000 U/mL, Thermo Fisher Scientific, Inc., 15140-122) was used. […] After culturing overnight, 5 μL of FLA3527, ASLAN003, BAY2402234, or cytarabine (Ara-C, C2035, Tokyo Chemical Industry Co., Ltd.) at the predetermined concentration was added, and 3 days later, 25 μL of Cell Titer-Glo (registered trade mark) luminescent cell viability assay (Promega Corporation, G7573) was added, and the light emission amount was measured using an Envision plate reader (PerkinElmer, Inc.). […] The proliferation inhibition concentration for each compound concentration was calculated by the following expression. […]
# (§2) The CI indicating the combined effect of Ara-C and the DHODH inhibitor compound was calculated using the software CalcuSyn of Biosoft.
# [2] = tested on: human myeloid leukemia cell line MV4-11; assay: Cell proliferation test (Cell Titer-Glo), MV4-11; type: cell-based; conditions: MV4-11 cells, Ara-C alone
# Description: as §1, §2
compound,measurement,setting,value
"Nc1ccn([C@@H]2O[C@H](CO)[C@@H](O)[C@@H]2O)c(=O)n1 [Ara-C, cytarabine]",cytarabine sensitivity of the cell line,[1],insensitive
same,Ara-C sensitivity of the cell line,[2],sensitive
